Results as given in PubChem BioAssay AID1963856 (Molecular Pharmacology Branch, DTP, NCI, 2024).

System: LG0567-F671-PDC KRAS tumor spheroid viability
Experiment: Anticancer human tumor LG0567-F671-PDC patient-derived lung adenocarcinoma cell line growth inhibition [KRAS2]
Settings: spheroids with HUVEC and MSC; for IC50: curve of first compound; for viability, T/C: stronger effect = lower value
Outline: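 Combination screen of spheroid viability in tumor-cell co-cultures with endothelial (HUVEC) and mesenchymal stem cell stroma. Each agent was tested in half-log dilutions, topping at clinical Cmax or at 10 microM without a known Cmax.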

[1] = second compound 0.1 µM, first compound 0.0316 µM
[2] = second compound 0.1 µM, first compound 0.1 µM
[3] = second compound 0.1 µM, first compound 0.316 µM
[4] = second compound 0.1 µM, first compound 1 µM
[5] = second compound 0.1 µM, first compound 3.16 µM
[6] = second compound 0.1 µM, first compound 10 µM
[7] = second compound 0.316 µM, first compound 0.0316 µM
[8] = second compound 0.316 µM, first compound 0.1 µM
[9] = second compound 0.316 µM, first compound 0.316 µM
[10] = second compound 0.316 µM, first compound 1 µM
[11] = second compound 0.316 µM, first compound 3.16 µM
[12] = second compound 0.316 µM, first compound 10 µM
[13] = second compound 1 µM, first compound 0.0316 µM
[14] = second compound 1 µM, first compound 0.1 µM
[15] = second compound 1 µM, first compound 0.316 µM
[16] = second compound 1 µM, first compound 1 µM
[17] = second compound 1 µM, first compound 3.16 µM
[18] = second compound 1 µM, first compound 10 µM
[19] = second compound 3.16 µM, first compound 0.0316 µM
[20] = second compound 3.16 µM, first compound 0.1 µM
[21] = second compound 3.16 µM, first compound 0.316 µM
[22] = second compound 3.16 µM, first compound 1 µM
[23] = second compound 3.16 µM, first compound 3.16 µM
[24] = second compound 3.16 µM, first compound 10 µM
[25] = second compound 10 µM, first compound 0.0316 µM
[26] = second compound 10 µM, first compound 0.1 µM
[27] = second compound 10 µM, first compound 0.316 µM
[28] = second compound 10 µM, first compound 1 µM
[29] = second compound 10 µM, first compound 3.16 µM
[30] = second compound 10 µM, first compound 10 µM
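Further: drug exposure lasted seven days after spheroids formed for three days.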
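Wherever viability, T/C is given: 100% = DMSO vehicle control viability.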

Structure (SMILES) | IC50 (second compound 0.1 µM) [nM] | IC50 (second compound 0.316 µM) [nM] | IC50 (second compound 1 µM) [nM] | IC50 (second compound 3.16 µM) [nM] | viability, T/C [1] [%] | viability, T/C [2] [%] | viability, T/C [3] [%] | viability, T/C [4] [%] | viability, T/C [5] [%] | viability, T/C [6] [%] | viability, T/C [7] [%] | viability, T/C [8] [%] | viability, T/C [9] [%] | viability, T/C [10] [%] | viability, T/C [11] [%] | viability, T/C [12] [%] | viability, T/C [13] [%] | viability, T/C [14] [%] | viability, T/C [15] [%] | viability, T/C [16] [%] | also measured
COc1cc(Nc2ncc3c(n2)-c2ccc(Cl)cc2C(c2c(F)cccc2OC)=NC3)ccc1C(=O)O + CNCc1ccccc1-c1csc(C(C)Nc2nc(C)nc3cc(OC)c(OC)cc23)c1 | 3000 | 343 | 262 | < 31.6 | 72 | 62 | 58.1 | 60.6 | 51.4 | 37.8 | 56.3 | 54.3 | 48.2 | 45.6 | 42.4 | 32 | 52.4 | 53.4 | 47 | 48.2 | IC50 (second compound 10 µM): < 31.6 nM; viability, T/C [17]: 37.8%; viability, T/C [18]: 29%; viability, T/C [19]: 12.8%; viability, T/C [20]: 16.8%; viability, T/C [21]: 14%; viability, T/C [22]: 3.3%; viability, T/C [23]: 0.97%; viability, T/C [24]: 1.05%; viability, T/C [25]: 0.9%; viability, T/C [26]: 0.24%; viability, T/C [27]: 0.13%; viability, T/C [28]: 0.43%; viability, T/C [29]: 0.12%; viability, T/C [30]: 1.01%
Cn1nccc1Nc1nccc(-c2cc3c(s2)C(C)(C)N(CCN2CCOCC2)C3=O)n1 + CNCc1ccccc1-c1csc(C(C)Nc2nc(C)nc3cc(OC)c(OC)cc23)c1 | 581 | 557 | 340 | 794 | 83.6 | 68.6 | 59.6 | 44.1 | 31.7 | 32 | 66.2 | 65.1 | 54.2 | 46 | 28.3 | 26.8 | 66.2 | 66.1 | 49.7 | 35.6 | IC50 (second compound 10 µM): < 31.6 nM; viability, T/C [17]: 29.1%; viability, T/C [18]: 26.3%; viability, T/C [19]: 73.9%; viability, T/C [20]: 71.7%; viability, T/C [21]: 53.3%; viability, T/C [22]: 44.7%; viability, T/C [23]: 36.6%; viability, T/C [24]: 1.09%; viability, T/C [25]: 0.21%; viability, T/C [26]: 0.18%; viability, T/C [27]: 0.76%; viability, T/C [28]: 0.16%; viability, T/C [29]: 1.91%; viability, T/C [30]: 0.18%
COc1cc2nccc(Oc3ccc(NC(=O)C4(C(=O)Nc5ccc(F)cc5)CC4)cc3)c2cc1OC + CC1OCC2(CCN(c3cnc(Sc4ccnc(N)c4Cl)c(N)n3)CC2)C1N | < 31.6 | < 31.6 | < 31.6 | < 31.6 | 54 | 50.4 | 33.3 | 31.5 | 30.3 | 88.4 | 33 | 30.9 | 26.6 | 20.9 | 13.3 | 69.7 | 25.7 | 22.8 | 18.4 | 13.8 | IC50 (second compound 10 µM): < 31.6 nM; viability, T/C [17]: 9.19%; viability, T/C [18]: 43.3%; viability, T/C [19]: 19.6%; viability, T/C [20]: 15.2%; viability, T/C [21]: 8.47%; viability, T/C [22]: 6.57%; viability, T/C [23]: 6.28%; viability, T/C [24]: 25.8%; viability, T/C [25]: 13.1%; viability, T/C [26]: 9.16%; viability, T/C [27]: 8.96%; viability, T/C [28]: 6.33%; viability, T/C [29]: 3.72%; viability, T/C [30]: 23.3%
CC(C)NCC(C(=O)N1CCN(c2ncnc3c2C(C)CC3O)CC1)c1ccc(Cl)cc1 (stereo not given) + C=CC(=O)N1CCN(c2nc(OCC3CCCN3C)nc3c2CCN(c2cccc4cccc(C)c24)C3)CC1CC#N | < 31.6 | < 31.6 | < 31.6 | < 31.6 | 28.5 | 27.5 | 18.6 | 20.1 | 17 | 13.4 | 33.9 | 29.3 | 21 | 19.5 | 18.6 | 15.4 | 38.6 | 32.3 | 24.6 | 18.2 | IC50 (second compound 0.0316 µM): < 31.6 nM; viability, T/C (second compound 0.0316 µM, first compound 0.0316 µM): 36%; viability, T/C (second compound 0.0316 µM, first compound 0.1 µM): 33.7%; viability, T/C (second compound 0.0316 µM, first compound 0.316 µM): 24.6%; viability, T/C (second compound 0.0316 µM, first compound 1 µM): 22.8%; viability, T/C (second compound 0.0316 µM, first compound 3.16 µM): 22.4%; viability, T/C (second compound 0.0316 µM, first compound 10 µM): 19.8%; viability, T/C [17]: 15.3%; viability, T/C [18]: 13.3%; viability, T/C [19]: 8.92%; viability, T/C [20]: 7.61%; viability, T/C [21]: 4.92%; viability, T/C [22]: 2.79%; viability, T/C [23]: 3.43%; viability, T/C [24]: 0.37%
